Assay results as given in patent publication US20200339511A1, “Substituted indoline derivatives as dengue viral replication inhibitors” (priority 2016, published 2020).

Key:
Vero cells = settings: African green monkey
DENV-2 16681 strain = experiment: DENV-2 antiviral assay (eGFP-labeled virus in Vero cells); assay type: cell-based, Dengue virus; settings: DENV-2 16681 eGFP, MOI 0.5, 3 days
Description: The antiviral activity of all the compounds of the invention was tested the against DENV-2 16681 strain which was labeled with enhanced green fluorescent protein (eGPF). The culture medium consists of minimal essential medium supplemented with 2% of heat-inactivated fetal calf serum, 0.04% gentamycin (50 mg/mL) and 2 mM of L-glutamine. Vero cells, obtained from ECACC, were suspended in culture medium and 25 μL was added to 384-well plates (2500 cells/well), which already contain the antiviral compounds. Typically, these plates contain a 5-fold serial dilution of 9 dilution steps of the test compound at 200 times the final concentration in 100% DMSO (200 nL). […] Finally, each plate contains wells which are assigned as virus controls (containing cells and virus in the absence of compound), cell controls (containing cells in the absence of virus and compound) and medium controls (containing medium in the absence of cells, virus and compounds). To the wells assigned as medium control, 25 μL of culture medium was added instead of Vero cells. Once the cells were added to the plates, the plates were incubated for 30 minutes at room temperature to allow the cells to distribute evenly within the wells. Next, the plates were incubated in a fully humidified incubator (37° C., 5% CO2) until the next day. Then, DENV-2 strain 16681, labeled with eGFP, was added at a multiplicity of infection (MOI) of 0.5. Therefore, 15 μL of virus suspension was added to all the wells containing test compound and to the wells assigned as virus control. In parallel, 15 μL of culture medium was added to the medium and cell controls. Next, the plates were incubated for 3 days in a fully humidified incubator (37° C., 5% CO2). At the day of the read out, the eGFP fluorescence was measured using an automated fluorescence microscope at 488 nm (blue laser). Using an in-house LIMS system, inhibition dose response curves for each compound were calculated and the half maximal effective concentration (EC50) was determined. Therefore, the percent inhibition (I) for every test concentration is calculated using the following formula: I=100*(ST-SCC)/(SVC-SCC), ST, SCC and SVC are the amount of eGFP signal in the test compound, cell control and virus control wells, respectively. The EC50 represents the concentration of a compound at which the virus replication is inhibited with 50%, as measured by a 50% reduction of the eGFP fluorescent intensity compared to the virus control. The EC50 is calculated using linear interpolation (Table 1).

in vitro = settings: African green monkey
[1] = Dengue virus, DENV2, Vero, 72 h

Row | Structure (SMILES) | CC50 (Vero cells) [nM] | EC50 (DENV-2 16681 strain) [nM] | CC50 (in vitro) [nM] | EC50 (DENV-2 16681 strain; [1]) [nM]
1 | COc1cc(NC(C(=O)N2CCc3cc(OC)c(C(F)(F)F)cc32)c2ccc(Cl)cc2F)cc(OCCO)c1 (single isomer, unassigned) [Compound 8A, 2-(4-chloro-2-fluorophenyl)-2-((3-(2-hydroxyethoxy)-5-methoxyphenyl)amino)-1-(5-methoxy-6-(trifluoromethyl)indolin-1-yl)ethanone] | > 25000 | 460 |  | 
2 | COc1cc(NC(C(=O)N2CCc3ccc(C(F)(F)F)cc32)c2ccc(Cl)cc2F)cc(OCCO)c1 (single isomer, unassigned) [Compound 2A, 2-(4-chloro-2-fluorophenyl)-2-((3-(2-hydroxyethoxy)-5-methoxyphenyl)amino)-1-(6-(trifluoromethyl)indolin-1-yl)ethanone] |  | 320 | 18000 | 
3 | COc1cc(NC(C(=O)N2CCc3ccc(OC(F)(F)F)cc32)c2ccc(Cl)cc2F)cc(OCCO)c1 (racemic) [Compound 6, 2-(4-chloro-2-fluorophenyl)-2-((3-(2-hydroxyethoxy)-5-methoxyphenyl)amino)-1-(6-(trifluoromethoxy)indolin-1-yl)ethanone] |  |  | 14000 | 6.2
4 | COc1cc(NC(C(=O)N2CCc3cc(OC)c(C(F)(F)F)cc32)c2ccc(Cl)cc2OC)cc(OCCO)c1 (single isomer, unassigned) [Compound 11A, 2-(4-chloro-2-methoxyphenyl)-2-((3-(2-hydroxyethoxy)-5-methoxyphenyl)amino)-1-(5-methoxy-6-(trifluoromethyl)indolin-1-yl)ethanone] |  | 330 | > 25000 | 
5 | COc1cc(NC(C(=O)N2CCc3ccc(C(F)(F)F)cc32)c2ccc(Cl)cc2F)cc(OCCO)c1 (racemic) [Compound 2, 2-(4-chloro-2-fluorophenyl)-2-((3-(2-hydroxyethoxy)-5-methoxyphenyl)amino)-1-(6-(trifluoromethyl)indolin-1-yl)ethanone] |  |  | 12000 | 8.9
6 | COc1cc(NC(C(=O)N2CCc3ccc(OC(F)(F)F)cc32)c2ccc(Cl)cc2F)cc(OCCO)c1 (single isomer, unassigned) [Compound 6A, 2-(4-chloro-2-fluorophenyl)-2-((3-(2-hydroxyethoxy)-5-methoxyphenyl)amino)-1-(6-(trifluoromethoxy)indolin-1-yl)ethanone] |  | 280 | 17000 | 
7 | COc1cc(NC(C(=O)N2CCc3cc(F)c(C(F)(F)F)cc32)c2ccc(Cl)cc2)cc(OCCO)c1 (single isomer, unassigned) [Compound 12B, 2-(4-chlorophenyl)-1-(5-fluoro-6-(trifluoromethyl)indolin-1-yl)-2-((3-(2-hydroxyethoxy)-5-methoxyphenyl)amino)ethanone] | 11000 | 400 |  | 
8 | COc1cc(NC(C(=O)N2CCc3ccc(OC(F)(F)F)cc32)c2ccc(Cl)cc2)cc(OCCO)c1 (single isomer, unassigned) [Compound 3B, 2-(4-chlorophenyl)-2-((3-(2-hydroxyethoxy)-5-methoxyphenyl)amino)-1-(6-(trifluoromethoxy)indolin-1-yl)ethanone] | 12000 | 590 |  | 
9 | COc1cc(NC(C(=O)N2CCc3c(C)cc(C(F)(F)F)cc32)c2ccc(Cl)cc2)cc(OCCO)c1 (single isomer, unassigned) [Compound 10A, 2-(4-chlorophenyl)-2-((3-(2-hydroxyethoxy)-5-methoxy-phenyl)amino)-1-(4-methyl-6-(trifluoromethyl)indolin-1-yl)ethanone] |  | 1300 | 11000 | 
10 | COc1cc(NC(C(=O)N2CCc3ccc(OC(F)(F)F)cc32)c2ccc(Cl)cc2OC)cc(OCCO)c1 (single isomer, unassigned) [Compound 5B, 2-(4-chloro-2-methoxyphenyl)-2-((3-(2-hydroxyethoxy)-5-methoxyphenyl)amino)-1-(6-(trifluoromethoxy)indolin-1-yl)ethanone] | 14000 | 760 |  | 
11 | COc1cc(NC(C(=O)N2CCc3c(C)cc(OC(F)(F)F)cc32)c2ccc(Cl)cc2)cc(OCCO)c1 (single isomer, unassigned) [Compound 9A, 2-(4-chlorophenyl)-2-((3-(2-hydroxyethoxy)-5-methoxy-phenyl)amino)-1-(4-methyl-6-(trifluoromethoxy)indolin-1-yl)ethanone] |  | 1000 | 13000 | 
12 | COc1cc(NC(C(=O)N2CCc3ccc(C(F)(F)F)cc32)c2ccc(Cl)cc2OC)cc(OCCO)c1 (single isomer, unassigned) [Compound 1A, 2-(4-chloro-2-methoxyphenyl)-2-((3-(2-hydroxyethoxy)-5-methoxyphenyl)amino)-1-(6-(trifluoromethyl)indolin-1-yl)ethanone] |  | 220 | 13000 | 
13 | COc1cc(NC(C(=O)N2CCc3cc(OC)c(C(F)(F)F)cc32)c2ccc(Cl)cc2F)cc(OCCO)c1 (racemic) [Compound 8, 2-(4-chloro-2-fluorophenyl)-2-((3-(2-hydroxyethoxy)-5-methoxyphenyl)amino)-1-(5-methoxy-6-(trifluoromethyl)indolin-1-yl)ethanone] |  |  | > 25000 | 4.4
14 | COc1cc(NC(C(=O)N2CCc3cc(OC)c(C(F)(F)F)cc32)c2ccc(Cl)cc2)cc(OCCO)c1 (single isomer, unassigned) [Compound 7A, 2-(4-chlorophenyl)-2-((3-(2-hydroxyethoxy)-5-methoxyphenyl)amino)-1-(5-methoxy-6-(trifluoromethyl)indolin-1-yl)ethanone] |  | 790 | 21000 | 
15 | COc1cc(NC(C(=O)N2CCc3cc(OC)c(C(F)(F)F)cc32)c2ccc(Cl)cc2)cc(OCCO)c1 (racemic) [Compound 7, 2-(4-chlorophenyl)-2-((3-(2-hydroxyethoxy)-5-methoxyphenyl)amino)-1-(5-methoxy-6-(trifluoromethyl)indolin-1-yl)ethanone] |  |  | 11000 | 2.3
16 | COc1cc(NC(C(=O)N2CCc3cc(OC)c(OC(F)(F)F)cc32)c2ccc(Cl)cc2)cc(OCCO)c1 (single isomer, unassigned) [Compound 13B, 2-(4-chlorophenyl)-2-((3-(2-hydroxyethoxy)-5-methoxyphenyl)amino)-1-(5-methoxy-6-(trifluoromethoxy)indolin-1-yl)ethanone] | > 25000 | 280 |  | 
